target: T1, ΔF508-CFTR (Homo sapiens, UniProt P13569, DEL508-508); experiment: hBE equivalent current (Ieq) assay; format: cell-based; details: AUC of equivalent chloride current, % of CFTR amplifier (Compound A)+VX-809 (3 uM); compound at 10 uM and Compound A at 3 uM; primary lung epithelial cells homozygous ΔF508, 24 hours treatment
T1 construct: Primary lung epithelial cells homozygous for the Cystic Fibrosis-causing ΔF508 mutation were differentiated; endogenous in cells; host or cells: primary lung (bronchial) epithelial cells (hBE) homozygous for ΔF508, differentiated at an air-liquid interface
T1 sequence (P13569 with tags, fused parts or gaps DEL508-508): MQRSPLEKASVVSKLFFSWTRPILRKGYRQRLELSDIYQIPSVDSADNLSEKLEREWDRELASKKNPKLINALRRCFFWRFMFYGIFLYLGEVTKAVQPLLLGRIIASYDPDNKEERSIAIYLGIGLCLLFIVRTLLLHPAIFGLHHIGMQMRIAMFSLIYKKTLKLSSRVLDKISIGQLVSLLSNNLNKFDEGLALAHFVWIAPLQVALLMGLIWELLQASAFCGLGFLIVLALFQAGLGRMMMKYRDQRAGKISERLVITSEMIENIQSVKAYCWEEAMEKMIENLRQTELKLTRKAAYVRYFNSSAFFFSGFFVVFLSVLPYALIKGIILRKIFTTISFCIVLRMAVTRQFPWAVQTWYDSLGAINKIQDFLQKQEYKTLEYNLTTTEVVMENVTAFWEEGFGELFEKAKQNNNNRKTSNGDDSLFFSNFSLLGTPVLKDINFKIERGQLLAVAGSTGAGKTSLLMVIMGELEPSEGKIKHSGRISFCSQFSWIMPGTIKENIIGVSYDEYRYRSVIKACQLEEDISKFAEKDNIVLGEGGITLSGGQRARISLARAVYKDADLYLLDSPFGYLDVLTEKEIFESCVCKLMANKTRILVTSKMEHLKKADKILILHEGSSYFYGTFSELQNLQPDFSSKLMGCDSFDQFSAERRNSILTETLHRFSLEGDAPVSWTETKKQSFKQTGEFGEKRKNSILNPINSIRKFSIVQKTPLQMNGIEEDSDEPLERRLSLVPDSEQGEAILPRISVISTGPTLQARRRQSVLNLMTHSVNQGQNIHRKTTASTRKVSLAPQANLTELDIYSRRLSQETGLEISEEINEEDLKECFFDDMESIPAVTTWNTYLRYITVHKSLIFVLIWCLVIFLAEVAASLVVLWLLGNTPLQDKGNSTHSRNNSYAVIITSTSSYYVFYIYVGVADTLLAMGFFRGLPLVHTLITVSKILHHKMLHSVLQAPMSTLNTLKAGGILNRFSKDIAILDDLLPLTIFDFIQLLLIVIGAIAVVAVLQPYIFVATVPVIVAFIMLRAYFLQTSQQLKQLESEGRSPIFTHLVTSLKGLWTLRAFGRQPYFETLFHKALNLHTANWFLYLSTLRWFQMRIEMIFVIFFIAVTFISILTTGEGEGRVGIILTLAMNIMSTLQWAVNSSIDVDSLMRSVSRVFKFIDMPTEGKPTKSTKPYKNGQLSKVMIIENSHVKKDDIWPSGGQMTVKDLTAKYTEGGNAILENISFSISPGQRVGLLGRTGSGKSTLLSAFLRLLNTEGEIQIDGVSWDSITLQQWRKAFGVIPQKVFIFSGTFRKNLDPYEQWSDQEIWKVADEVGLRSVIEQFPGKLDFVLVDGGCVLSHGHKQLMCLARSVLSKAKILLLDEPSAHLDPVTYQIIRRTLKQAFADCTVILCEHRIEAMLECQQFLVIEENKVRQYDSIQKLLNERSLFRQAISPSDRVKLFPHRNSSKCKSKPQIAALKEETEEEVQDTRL
Description: ii. hBE Equivalent Current (Ieq) Assay
Primary lung epithelial cells homozygous for the Cystic Fibrosis-causing ΔF508 mutation were differentiated for a minimum of 4 weeks in an air-liquid interface on Costar 24 well HTS filter plates prior to the equivalent current (Ieq) measurements. Cells were apically mucus-washed for 30 minutes 24 h prior to treatment with compounds. The basolateral media was removed and replaced with media containing the compound of interest diluted to its final concentration from DMSO stocks. Treated cells were incubated at 37° C. and 5% CO2 for 24 hours. At the end of the treatment period, the media was changed to the Ieq experimental solution for 2 hours before the experiment and plates are maintained in a CO2-free incubator during this period. The plates containing the cells were then placed in pre-warmed heating blocks at 36° C.±0.5 for 15 minutes before measurements are taken. The transepithelial voltage (VT) and conductance (Gr) were measured using a custom 24 channel current clamp (TECC-24) with 24 well electrode manifold. The Ieq assay measurements were made following additions with standardized time periods: • 1. The baseline VT and Gr values were measured for approximately 20 minutes. • 2. Benzamil was added to block ENaC for 15 minutes. • 3. Forskolin plus VX-770 were added to maximally activate ΔF508-CFTR for 27 minutes. • 4. Bumetanide was added to inhibit the NaK2Cl cotransporter and shut-off secretion of chloride.
The activity data captured was the area under the curve (AUC) for the traces of the equivalent chloride current. The AUC was collected from the time of the forskolin/VX-770 addition until the inhibition by bumetanide addition. Correction in response to compound treatment was scored as the increase in the AUC for compound-treated samples over that of vehicle-treated samples.
(+ indicates activity <100% of a CFTR amplifier (Compound A)+VX-809 (3 uM) with compound at 10 uM and Compound A at 3 uM; ++ indicates activity ≥100% and <200% of CFTR amplifier+VX-809 (3 uM) with compound at 10 uM and Compound A at 3 uM; +++ indicates activity >200% of CFTR amplifier+VX-809 (3 uM) with compound at 10 uM and Compound A at 3 uM.

Compound | Activity
Cc1c(-c2cc(C(=O)NS(=O)(=O)c3cccc(N)c3)c3c(O[C@H](C)c4ccccc4)ccc(C)c3n2)sc2ccccc12 [Compound 13] | +++ (activity >200% of CFTR amplifier+VX-809 (3 uM) with compound at 10 uM and Compound A at 3 uM)
Cc1c(-c2cc(C(=O)NS(=O)(=O)C3CC3)c3c(O[C@H](C)c4ccccc4)ccc(C)c3n2)sc2ccccc12 [Compound 3] | ++ (activity ≥100% and <200% of CFTR amplifier+VX-809 (3 uM) with compound at 10 uM and Compound A at 3 uM)
Cc1c(-c2cc(C(=O)NS(C)(=O)=O)c3c(O[C@H](C)c4ccccc4)ccc(C)c3n2)oc2ccccc12 [Compound 2] | +++ (activity >200% of CFTR amplifier+VX-809 (3 uM) with compound at 10 uM and Compound A at 3 uM)
Cc1c(-c2cc(C(=O)NS(C)(=O)=O)c3c(O[C@H](C)c4ccccc4)ccc(C)c3n2)sc2ccccc12 [Compound 1] | +++ (activity >200% of CFTR amplifier+VX-809 (3 uM) with compound at 10 uM and Compound A at 3 uM)
Cc1c(-c2cc(C(=O)NS(=O)(=O)c3cccc(N)n3)c3c(O[C@H](C)c4ccccc4)ccc(C)c3n2)sc2ccccc12 [Compound 11] | ++ (activity ≥100% and <200% of CFTR amplifier+VX-809 (3 uM) with compound at 10 uM and Compound A at 3 uM)
Cc1c(-c2cc(C(=O)NS(=O)(=O)c3ccccc3)c3c(O[C@H](C)c4ccccc4)ccc(C)c3n2)sc2ccccc12 [Compound 9] | ++ (activity ≥100% and <200% of CFTR amplifier+VX-809 (3 uM) with compound at 10 uM and Compound A at 3 uM)
Cc1c(-c2cc(C(=O)NS(=O)(=O)N3CC[C@H](N)C3)c3c(O[C@H](C)c4ccccc4)ccc(C)c3n2)oc2ccccc12 [Compound 16] | +++ (activity >200% of CFTR amplifier+VX-809 (3 uM) with compound at 10 uM and Compound A at 3 uM)
Cc1c(-c2cc(C(=O)NS(=O)(=O)N3CCOCC3)c3c(O[C@H](C)c4ccccc4)ccc(C)c3n2)oc2ccccc12 [Compound 8] | + (activity <100% of a CFTR amplifier (Compound A)+VX-809 (3 uM) with compound at 10 uM and Compound A at 3 uM)
Cc1c(-c2cc(C(=O)NS(=O)(=O)c3ccccc3)c3c(O[C@H](C)c4ccccc4)ccc(C)c3n2)oc2ccccc12 [Compound 10] | ++ (activity ≥100% and <200% of CFTR amplifier+VX-809 (3 uM) with compound at 10 uM and Compound A at 3 uM)
Cc1c(-c2cc(C(=O)NS(=O)(=O)c3cccc(N)c3)c3c(O[C@H](C)c4ccccc4)ccc(C)c3n2)oc2ccccc12 [Compound 14] | +++ (activity >200% of CFTR amplifier+VX-809 (3 uM) with compound at 10 uM and Compound A at 3 uM)
Cc1c(-c2cc(C(=O)NS(=O)(=O)c3cnc(N)s3)c3c(O[C@H](C)c4ccccc4)ccc(C)c3n2)oc2ccccc12 [Compound 18] | + (activity <100% of a CFTR amplifier (Compound A)+VX-809 (3 uM) with compound at 10 uM and Compound A at 3 uM)
Cc1c(-c2cc(C(=O)NS(=O)(=O)N3CC[C@H](N)C3)c3c(O[C@H](C)c4ccccc4)ccc(C)c3n2)sc2ccccc12 [Compound 15] | ++ (activity ≥100% and <200% of CFTR amplifier+VX-809 (3 uM) with compound at 10 uM and Compound A at 3 uM)
Cc1c(-c2cc(C(=O)NS(=O)(=O)N3CCOCC3)c3c(O[C@H](C)c4ccccc4)ccc(C)c3n2)sc2ccccc12 [Compound 7] | +++ (activity >200% of CFTR amplifier+VX-809 (3 uM) with compound at 10 uM and Compound A at 3 uM)
Cc1c(-c2cc(C(=O)NS(=O)(=O)C3CC3)c3c(O[C@H](C)c4ccccc4)ccc(C)c3n2)oc2ccccc12 [Compound 4] | ++ (activity ≥100% and <200% of CFTR amplifier+VX-809 (3 uM) with compound at 10 uM and Compound A at 3 uM)
Cc1c(-c2cc(C(=O)NS(=O)(=O)c3cccc(N)n3)c3c(O[C@H](C)c4ccccc4)ccc(C)c3n2)oc2ccccc12 [Compound 12] | ++ (activity ≥100% and <200% of CFTR amplifier+VX-809 (3 uM) with compound at 10 uM and Compound A at 3 uM)
Cc1c(-c2cc(C(=O)NS(=O)(=O)c3cnc(N)s3)c3c(O[C@H](C)c4ccccc4)ccc(C)c3n2)sc2ccccc12 [Compound 17] | +++ (activity >200% of CFTR amplifier+VX-809 (3 uM) with compound at 10 uM and Compound A at 3 uM)

Source: patent US20200055844A1, “4-SULFONYLAMINOCARBONYLQUINOLINE DERIVATIVES FOR INCREASING CFTR ACTIVITY” (Proteostasis Therapeutics, Inc., priority 2017, published 2020)
